Literature values, collected in article PMC9851200, “Multiparameter phenotypic screening for endogenous TFEB and TFE3 translocation identifies novel chemical series modulating lysosome function” (Autophagy, 2022).

Assays:
Parameters in all cases: method as in original PKIS2 published data
[1] = biological target: T1, kinases (KINOMEscan panel) (Homo sapiens, UniProt O00141); details: kinase SGK1; Published KINOMEscan; ref original PKIS2 published data; cited from earlier work
T1 sequence (O00141 1-431): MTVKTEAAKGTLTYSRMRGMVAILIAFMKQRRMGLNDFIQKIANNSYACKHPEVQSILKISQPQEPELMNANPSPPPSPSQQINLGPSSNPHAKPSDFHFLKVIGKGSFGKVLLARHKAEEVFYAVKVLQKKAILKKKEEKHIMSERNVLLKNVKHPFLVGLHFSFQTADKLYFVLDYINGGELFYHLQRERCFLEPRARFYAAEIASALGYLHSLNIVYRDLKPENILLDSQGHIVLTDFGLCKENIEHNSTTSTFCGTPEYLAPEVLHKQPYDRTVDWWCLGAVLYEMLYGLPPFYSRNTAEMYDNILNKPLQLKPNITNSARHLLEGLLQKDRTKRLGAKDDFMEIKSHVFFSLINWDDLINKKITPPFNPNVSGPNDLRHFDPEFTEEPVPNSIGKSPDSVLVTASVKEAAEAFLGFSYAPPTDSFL

[2] = biological target: kinases (KINOMEscan panel) (Homo sapiens, UniProt O60674); details: JAK2(JH1domain-catalytic); Published KINOMEscan; ref original PKIS2 published data; cited from earlier work
[3] = biological target: kinases (KINOMEscan panel) (Homo sapiens, UniProt P00519); details: Published KINOMEscan, ref original PKIS2 published data, cited from earlier work
[4] = biological target: kinases (KINOMEscan panel) (Homo sapiens, UniProt P16234); details: PDGFRA; Published KINOMEscan; ref original PKIS2 published data; cited from earlier work
[5] = biological target: kinases (KINOMEscan panel) (Homo sapiens, UniProt P22607); details: FGFR3; Published KINOMEscan; ref original PKIS2 published data; cited from earlier work
[6] = biological target: kinases (KINOMEscan panel) (Homo sapiens, UniProt P31749); details: kinase AKT1; Published KINOMEscan; ref original PKIS2 published data; cited from earlier work
[7] = biological target: kinases (KINOMEscan panel) (Homo sapiens, UniProt P43405); details: SYK; Published KINOMEscan; ref original PKIS2 published data; cited from earlier work
[8] = biological target: T2, kinases (KINOMEscan panel) (Homo sapiens, UniProt P78356); details: PIP4K2B; Published KINOMEscan; ref original PKIS2 published data; cited from earlier work
T2 sequence (P78356 1-416): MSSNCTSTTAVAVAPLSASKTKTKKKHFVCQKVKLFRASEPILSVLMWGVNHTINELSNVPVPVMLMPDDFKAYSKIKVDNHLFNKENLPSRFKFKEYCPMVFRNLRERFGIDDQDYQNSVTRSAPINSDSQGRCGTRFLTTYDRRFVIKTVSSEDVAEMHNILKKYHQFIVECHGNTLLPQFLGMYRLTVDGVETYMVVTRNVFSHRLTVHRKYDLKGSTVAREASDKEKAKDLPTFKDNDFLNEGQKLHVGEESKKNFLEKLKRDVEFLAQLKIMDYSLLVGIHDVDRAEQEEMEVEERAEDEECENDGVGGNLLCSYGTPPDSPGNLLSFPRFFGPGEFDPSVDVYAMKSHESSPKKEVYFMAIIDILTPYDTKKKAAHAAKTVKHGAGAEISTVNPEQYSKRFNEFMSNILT

[9] = biological target: kinases (KINOMEscan panel) (Homo sapiens, UniProt Q00526); details: CDK3; Published KINOMEscan; ref original PKIS2 published data; cited from earlier work
[10] = biological target: kinases (KINOMEscan panel) (Homo sapiens, UniProt Q00535); details: Published KINOMEscan; ref original PKIS2 published data; cited from earlier work
[11] = biological target: kinases (KINOMEscan panel) (Homo sapiens, UniProt Q00537); details: kinase CDK17; Published KINOMEscan; ref original PKIS2 published data; cited from earlier work
[12] = biological target: T3, kinases (KINOMEscan panel) (Homo sapiens, UniProt Q13237); details: PRKG2; Published KINOMEscan; ref original PKIS2 published data; cited from earlier work
T3 sequence (Q13237 1-762): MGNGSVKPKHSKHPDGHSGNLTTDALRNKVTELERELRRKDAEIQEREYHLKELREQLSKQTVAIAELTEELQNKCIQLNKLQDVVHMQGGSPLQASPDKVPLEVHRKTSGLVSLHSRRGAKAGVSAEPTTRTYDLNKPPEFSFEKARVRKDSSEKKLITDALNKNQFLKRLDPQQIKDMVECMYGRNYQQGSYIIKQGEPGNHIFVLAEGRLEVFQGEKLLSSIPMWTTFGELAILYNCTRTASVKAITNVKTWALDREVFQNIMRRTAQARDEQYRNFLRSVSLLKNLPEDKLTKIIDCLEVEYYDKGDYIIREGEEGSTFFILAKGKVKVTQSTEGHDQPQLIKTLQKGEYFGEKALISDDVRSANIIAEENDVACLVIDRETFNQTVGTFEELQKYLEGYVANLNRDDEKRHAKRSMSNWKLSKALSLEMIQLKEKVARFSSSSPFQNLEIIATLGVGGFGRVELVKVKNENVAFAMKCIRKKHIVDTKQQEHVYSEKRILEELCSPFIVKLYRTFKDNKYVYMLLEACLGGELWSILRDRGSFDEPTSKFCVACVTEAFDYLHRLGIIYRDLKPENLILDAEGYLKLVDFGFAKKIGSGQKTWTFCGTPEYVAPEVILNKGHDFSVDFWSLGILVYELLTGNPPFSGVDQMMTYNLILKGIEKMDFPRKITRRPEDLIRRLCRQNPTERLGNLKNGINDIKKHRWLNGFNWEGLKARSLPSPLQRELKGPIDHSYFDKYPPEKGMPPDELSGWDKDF

Chain of kinases (KINOMEscan panel) (Homo sapiens, UniProt P00519) (P00519 whole entry): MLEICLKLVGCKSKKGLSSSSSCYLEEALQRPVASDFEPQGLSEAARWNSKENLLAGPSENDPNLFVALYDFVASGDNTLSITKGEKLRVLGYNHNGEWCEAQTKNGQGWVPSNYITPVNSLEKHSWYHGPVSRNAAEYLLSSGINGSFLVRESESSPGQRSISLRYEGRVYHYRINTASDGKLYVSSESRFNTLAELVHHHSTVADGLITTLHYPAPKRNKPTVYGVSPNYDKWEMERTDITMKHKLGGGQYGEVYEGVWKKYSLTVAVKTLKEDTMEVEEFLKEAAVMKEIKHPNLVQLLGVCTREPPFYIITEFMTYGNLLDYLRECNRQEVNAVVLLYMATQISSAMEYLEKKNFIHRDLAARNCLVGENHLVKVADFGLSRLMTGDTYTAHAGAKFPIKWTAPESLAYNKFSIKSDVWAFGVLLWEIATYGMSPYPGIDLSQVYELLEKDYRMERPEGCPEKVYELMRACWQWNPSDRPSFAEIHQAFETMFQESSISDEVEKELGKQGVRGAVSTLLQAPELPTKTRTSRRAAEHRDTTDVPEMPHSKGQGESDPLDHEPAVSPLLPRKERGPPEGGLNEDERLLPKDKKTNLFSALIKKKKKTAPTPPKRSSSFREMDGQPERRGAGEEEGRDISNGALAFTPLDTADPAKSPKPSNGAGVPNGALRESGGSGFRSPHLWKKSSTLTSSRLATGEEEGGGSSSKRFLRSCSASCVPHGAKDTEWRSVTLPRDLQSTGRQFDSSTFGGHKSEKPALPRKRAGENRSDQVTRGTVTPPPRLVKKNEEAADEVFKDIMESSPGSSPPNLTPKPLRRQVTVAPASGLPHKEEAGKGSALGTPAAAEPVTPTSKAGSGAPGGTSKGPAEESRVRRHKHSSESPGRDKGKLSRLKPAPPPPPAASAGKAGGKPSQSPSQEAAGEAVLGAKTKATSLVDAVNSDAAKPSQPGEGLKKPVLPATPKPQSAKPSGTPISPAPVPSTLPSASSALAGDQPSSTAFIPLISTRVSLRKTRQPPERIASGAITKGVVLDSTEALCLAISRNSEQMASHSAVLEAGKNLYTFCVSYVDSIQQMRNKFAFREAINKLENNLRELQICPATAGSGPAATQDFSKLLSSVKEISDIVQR
Chain of kinases (KINOMEscan panel) (Homo sapiens, UniProt Q00535) (Q00535 whole entry): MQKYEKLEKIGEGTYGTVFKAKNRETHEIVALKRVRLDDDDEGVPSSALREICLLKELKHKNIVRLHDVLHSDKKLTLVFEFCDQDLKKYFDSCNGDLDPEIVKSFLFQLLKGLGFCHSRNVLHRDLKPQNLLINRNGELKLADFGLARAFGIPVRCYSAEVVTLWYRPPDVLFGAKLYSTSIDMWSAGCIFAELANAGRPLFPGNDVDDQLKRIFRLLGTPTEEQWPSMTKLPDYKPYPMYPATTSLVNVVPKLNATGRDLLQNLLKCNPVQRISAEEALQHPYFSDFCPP
Chain of kinases (KINOMEscan panel) (Homo sapiens, UniProt P22607) (P22607 23-806): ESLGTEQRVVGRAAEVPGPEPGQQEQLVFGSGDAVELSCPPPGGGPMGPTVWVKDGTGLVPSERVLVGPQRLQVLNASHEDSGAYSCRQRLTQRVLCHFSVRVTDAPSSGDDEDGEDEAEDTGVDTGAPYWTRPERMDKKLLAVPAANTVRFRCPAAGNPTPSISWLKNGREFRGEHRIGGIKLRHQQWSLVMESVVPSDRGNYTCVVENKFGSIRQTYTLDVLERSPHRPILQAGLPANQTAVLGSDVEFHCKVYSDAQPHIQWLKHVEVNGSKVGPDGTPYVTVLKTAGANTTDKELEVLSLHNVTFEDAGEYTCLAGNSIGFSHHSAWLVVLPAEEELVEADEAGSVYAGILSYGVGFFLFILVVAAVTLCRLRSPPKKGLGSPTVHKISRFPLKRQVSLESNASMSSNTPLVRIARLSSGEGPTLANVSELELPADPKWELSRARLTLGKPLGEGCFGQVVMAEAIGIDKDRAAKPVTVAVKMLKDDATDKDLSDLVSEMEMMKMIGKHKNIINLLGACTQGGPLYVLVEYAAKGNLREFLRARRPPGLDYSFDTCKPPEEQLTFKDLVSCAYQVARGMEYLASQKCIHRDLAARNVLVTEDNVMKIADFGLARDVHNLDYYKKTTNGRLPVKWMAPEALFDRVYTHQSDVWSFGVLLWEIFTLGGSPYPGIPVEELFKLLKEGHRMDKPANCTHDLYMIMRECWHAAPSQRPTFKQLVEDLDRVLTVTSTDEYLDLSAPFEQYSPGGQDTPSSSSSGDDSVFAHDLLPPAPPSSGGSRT
Chain of kinases (KINOMEscan panel) (Homo sapiens, UniProt P16234) (P16234 24-1089): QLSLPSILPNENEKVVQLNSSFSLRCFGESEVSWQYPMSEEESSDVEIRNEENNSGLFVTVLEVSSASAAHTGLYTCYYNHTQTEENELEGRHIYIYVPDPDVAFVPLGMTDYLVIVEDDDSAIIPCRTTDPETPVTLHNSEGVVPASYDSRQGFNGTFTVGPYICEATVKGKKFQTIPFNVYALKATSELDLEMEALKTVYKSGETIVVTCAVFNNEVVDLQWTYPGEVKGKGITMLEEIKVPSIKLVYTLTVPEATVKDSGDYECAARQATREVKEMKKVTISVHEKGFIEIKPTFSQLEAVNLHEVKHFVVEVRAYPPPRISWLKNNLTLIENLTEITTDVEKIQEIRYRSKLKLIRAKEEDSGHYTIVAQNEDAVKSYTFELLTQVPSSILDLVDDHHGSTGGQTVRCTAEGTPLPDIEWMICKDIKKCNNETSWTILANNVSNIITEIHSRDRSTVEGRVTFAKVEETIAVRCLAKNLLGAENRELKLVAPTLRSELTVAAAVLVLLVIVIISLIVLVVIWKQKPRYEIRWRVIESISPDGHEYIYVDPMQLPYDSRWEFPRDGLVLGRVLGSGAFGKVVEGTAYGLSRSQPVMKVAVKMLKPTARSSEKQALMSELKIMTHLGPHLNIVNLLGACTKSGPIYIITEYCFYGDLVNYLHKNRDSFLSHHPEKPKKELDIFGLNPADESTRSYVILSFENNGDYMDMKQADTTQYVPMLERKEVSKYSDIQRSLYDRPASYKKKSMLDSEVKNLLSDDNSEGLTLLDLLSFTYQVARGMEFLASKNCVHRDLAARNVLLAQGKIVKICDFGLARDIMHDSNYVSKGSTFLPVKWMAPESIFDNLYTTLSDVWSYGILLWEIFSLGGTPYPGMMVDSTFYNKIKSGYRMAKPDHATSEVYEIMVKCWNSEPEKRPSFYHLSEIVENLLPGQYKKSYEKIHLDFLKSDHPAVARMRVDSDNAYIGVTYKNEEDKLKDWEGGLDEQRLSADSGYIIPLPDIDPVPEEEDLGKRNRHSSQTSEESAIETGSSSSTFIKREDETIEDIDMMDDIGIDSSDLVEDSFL
Chain of kinases (KINOMEscan panel) (Homo sapiens, UniProt P31749) (P31749 whole entry): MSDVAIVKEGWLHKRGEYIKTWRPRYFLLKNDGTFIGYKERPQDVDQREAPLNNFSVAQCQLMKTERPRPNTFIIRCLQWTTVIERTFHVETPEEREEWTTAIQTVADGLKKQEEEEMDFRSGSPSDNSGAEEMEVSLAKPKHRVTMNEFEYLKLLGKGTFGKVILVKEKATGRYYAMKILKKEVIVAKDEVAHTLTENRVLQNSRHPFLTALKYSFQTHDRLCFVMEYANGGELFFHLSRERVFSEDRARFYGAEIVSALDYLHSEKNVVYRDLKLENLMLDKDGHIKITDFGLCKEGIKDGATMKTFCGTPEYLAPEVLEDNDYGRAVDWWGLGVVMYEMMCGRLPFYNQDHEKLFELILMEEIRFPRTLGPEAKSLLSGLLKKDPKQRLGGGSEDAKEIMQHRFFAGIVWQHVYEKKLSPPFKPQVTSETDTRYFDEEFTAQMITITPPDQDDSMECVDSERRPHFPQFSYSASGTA
Chain of kinases (KINOMEscan panel) (Homo sapiens, UniProt Q00537) (Q00537 whole entry): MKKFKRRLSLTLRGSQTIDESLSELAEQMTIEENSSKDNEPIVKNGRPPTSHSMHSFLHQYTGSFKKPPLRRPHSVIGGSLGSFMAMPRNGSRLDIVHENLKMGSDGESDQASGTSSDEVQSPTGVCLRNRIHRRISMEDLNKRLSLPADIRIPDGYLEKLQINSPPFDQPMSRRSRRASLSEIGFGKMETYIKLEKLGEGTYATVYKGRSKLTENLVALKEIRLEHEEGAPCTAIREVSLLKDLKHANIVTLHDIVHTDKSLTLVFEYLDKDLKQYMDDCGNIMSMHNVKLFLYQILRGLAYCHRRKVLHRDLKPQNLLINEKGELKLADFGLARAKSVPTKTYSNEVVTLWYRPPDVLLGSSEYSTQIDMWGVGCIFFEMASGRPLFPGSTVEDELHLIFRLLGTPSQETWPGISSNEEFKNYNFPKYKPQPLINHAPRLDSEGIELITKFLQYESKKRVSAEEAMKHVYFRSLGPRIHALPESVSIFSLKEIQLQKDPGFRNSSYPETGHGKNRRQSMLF
Chain of kinases (KINOMEscan panel) (Homo sapiens, UniProt Q00526) (Q00526 whole entry): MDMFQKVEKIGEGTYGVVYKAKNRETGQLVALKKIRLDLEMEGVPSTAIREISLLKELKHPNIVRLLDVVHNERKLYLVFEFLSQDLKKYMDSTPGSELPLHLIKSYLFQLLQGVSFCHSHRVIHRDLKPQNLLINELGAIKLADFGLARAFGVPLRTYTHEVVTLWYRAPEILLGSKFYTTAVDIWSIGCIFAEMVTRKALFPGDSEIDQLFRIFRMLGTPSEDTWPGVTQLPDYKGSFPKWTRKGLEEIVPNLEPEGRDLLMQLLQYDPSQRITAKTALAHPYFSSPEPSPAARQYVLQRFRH

## Cc1cccc(-c2nc(Nc3ccncc3)c3ccccc3n2)n1 [NK215]
[1]
  KINOMEscan SGK1: 0
[2]
  KINOMEscan JAK2(JH1domain-catalytic): 0
[3]; ABL1-nonphosphorylated
  KINOMEscan ABL1-nonphosphorylated: 39
[3]; ABL1-phosphorylated
  KINOMEscan ABL1-phosphorylated: 28
[4]
  KINOMEscan PDGFRA: 0
[5]
  KINOMEscan FGFR3: 2
[6]
  KINOMEscan AKT1: 20
[7]
  KINOMEscan SYK: 14
[8]
  KINOMEscan PIP4K2B: 0
[9]
  KINOMEscan CDK3: 20
[10]
  KINOMEscan CDK5: 0
[11]
  KINOMEscan CDK17: 10
[12]
  KINOMEscan PRKG2: 0
